# From the supplement of paper PMC10307832
# Assays:
# Test in all cases: relative viability (nuclei count vs DMSO), 5 days (fraction); higher = more cells survive
# [1] = compound: Cc1ccccc1C(C(=O)NC1CCCCC1)N(C(=O)Cn1ccnc1C)c1cccc(F)c1 [IDH-C35] + NC(=O)Nc1cc(-c2cccc(F)c2)sc1C(=O)N[C@H]1CCCNC1 [AZD7762] (partner 0.2 µM)
# How it was run: (§1)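 The day after seeding in 1536-well plates, lung cancer cell lines were treated by pin tool with a single drug, or with a fixed anchor-drug dose together with five library-drug doses (not always all listed) in √10 steps. After 5 days, a combined fix-and-stain solution (final 0.05% Triton X-100, 1% formaldehyde, 1 ug/ml Hoechst) was added. Nuclei counted on 4× images gave relative viability as treated counts over vehicle counts, reported as the median of duplicate plates.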
# [2] = compound: CC1=C(C(=NN1)C)CC2=C(C3=C(S2)N(C(=O)N(C3=O)C)CC(C)C)C(=O)N4C[C@@H](CO4)O + C[C@@H](Oc1cc(-c2cnn(C3CCNCC3)c2)cnc1N)c1c(Cl)ccc(F)c1Cl [Crizotinib] (partner 1 µM)
# How it was run: as §1
# [3] = compound: Cc1ccccc1C(C(=O)NC1CCCCC1)N(C(=O)Cn1ccnc1C)c1cccc(F)c1 [IDH-C35] + CC(C)C[C@H](NC(=O)[C@H](Cc1ccccc1)NC(=O)c1cnccn1)B(O)O [Bortezomib] (partner 0.002 µM)
# How it was run: as §1
# [4] = compound: CC1=C(C(=NN1)C)CC2=C(C3=C(S2)N(C(=O)N(C3=O)C)CC(C)C)C(=O)N4C[C@@H](CO4)O + CC(C)C[C@H](NC(=O)[C@H](Cc1ccccc1)NC(=O)c1cnccn1)B(O)O [Bortezomib] (partner 0.002 µM)
# How it was run: as §1
Cell Line,relative viability ([1]; first compound 0.08 µM),relative viability ([1]; first compound 0.253 µM),relative viability ([1]; first compound 0.8 µM),relative viability ([1]; first compound 2.53 µM),relative viability ([1]; first compound 8 µM),relative viability ([2]; first compound 0.0025 µM),relative viability ([2]; first compound 0.007906 µM),relative viability ([2]; first compound 0.025 µM),relative viability ([2]; first compound 0.07906 µM),relative viability ([2]; first compound 0.25 µM),relative viability ([3]; first compound 0.08 µM),relative viability ([3]; first compound 0.253 µM),relative viability ([3]; first compound 0.8 µM),relative viability ([3]; first compound 2.53 µM),relative viability ([3]; first compound 8 µM),relative viability ([4]; first compound 0.0025 µM),relative viability ([4]; first compound 0.007906 µM),relative viability ([4]; first compound 0.025 µM),relative viability ([4]; first compound 0.07906 µM),relative viability ([4]; first compound 0.25 µM)
NCI-H2342,0.521,0.563,0.498,0.572,0.384,,,,,,,,,,,,,,,
SK-MES-1,,,,,,1.13,0.995,1.08,0.944,0.966,,,,,,,,,,
HCC-366,0.306,0.306,0.233,0.227,0.281,0.661,1.13,0.622,0.641,0.825,1.07,1.01,1.06,0.987,0.979,1.04,1.1,0.958,1.07,1.13
201T,0.62,0.638,0.615,0.514,0.603,1.06,0.978,1.03,1.06,1.05,1.09,1.1,1.08,1.09,1.09,1.15,1.07,1.03,1.06,1.12
HCC-827,0.218,0.266,0.221,0.206,0.228,0.96,0.965,0.924,0.929,1,1.07,1.02,1.07,1.08,1.01,0.923,1.04,0.985,0.913,1.08
NCI-H647,0.489,0.488,0.424,0.42,0.418,1.26,1.32,1.02,1.05,1.38,1.08,0.805,0.989,1.19,0.889,1.27,1.09,0.802,1.11,1.1
NCI-H2023,,,,,,0.76,0.731,0.705,0.691,0.659,0.998,1.13,1.01,0.349,0.911,1.11,1.11,0.945,0.975,0.963
NCI-H520,,,,,,0.717,0.671,0.307,0.291,0.36,0.759,0.344,0.636,0.731,0.756,0.646,0.413,0.192,0.23,0.28
RERF-LC-KJ,1.03,1.03,0.982,0.794,1.01,0.862,0.819,0.823,0.865,0.88,1.09,1.08,1.1,1.2,1.19,1.01,1.23,1.22,1.06,1.21
A-427,0.709,0.725,0.687,0.679,0.707,0.904,0.953,0.879,0.917,1.13,0.977,1.04,1.01,0.934,0.952,0.945,1,1.03,0.975,0.944
NCI-H441,1.39,1.31,1.09,1.21,0.98,0.715,0.774,0.608,0.889,0.945,0.524,,0.617,0.508,0.447,0.822,0.34,0.626,0.636,0.707
NCI-H1703,,0.141,,0.131,0.148,0.84,0.828,0.898,0.688,0.777,0.326,0.346,0.422,0.43,0.261,0.265,0.223,0.221,0.3,0.256
NCI-H1792,0.795,0.725,0.657,0.719,0.609,1.04,0.976,0.901,0.855,0.786,0.921,0.906,0.95,0.909,0.983,0.94,1.01,0.861,0.878,0.786
Calu-6,,,,,,0.741,0.691,0.808,0.746,1,0.971,1,1.04,1.07,0.955,1.05,1.05,0.904,1.12,1.09
SK-LU-1,,,,,,0.654,0.6,0.653,0.693,0.643,1.34,1.33,1.25,,1.03,1.15,0.752,0.425,0.789,0.541
PC-3 [JPC-3],0.75,0.867,0.86,0.844,0.78,1.02,0.898,0.93,0.861,1.08,0.854,0.868,0.849,0.856,0.813,0.949,0.869,0.886,0.79,0.786
